Results taken from patent US5496697A, “Methods and apparatus for detecting the effect of cell affecting agents on living cells” (priority 1993, dated 1996).
Read-outs that look alike come from different tables or passages of the source.

Assays:
[1] = tested on: normal human keratinocytes; experiment: metabolic rate of normal human keratinocytes exposed to irritants in the micro flow chamber (silicon sensor); type: cell-based; conditions: for IC50: Homo sapiens, Keratinocyte, read-out: -log10 (MRD50) (converted)
[2] = cited from earlier work
MDCK cells [3] = experiment: metabolic rate of MDCK cells grown on a cover slip; type: cell-based, canine; conditions: for inhibition at 10000 µM: 10 mM theophylline
MDCK cells [4] = experiment: metabolic rate of MDCK cells grown on the silicon sensor surface; type: cell-based, canine
PGE1 receptor = experiment: metabolic rate of M1C-2 cells stimulated through the PGE1 receptor; type: cell-based, mouse; conditions: PGE1, FIG. 27
MDCK cells [5] = experiment: steady-state potential of MDCK cells grown on the silicon sensor surface; type: cell-based, canine
Excerpt: It contains information on the pH of the small aqueous compartment between the cells and the sensor, and it contains information about trans-cellularpotentials, which are essentially batteries in series with the electronic circuit of the sensor.
The steadystate potential reported by the sensor (with fluid flow on) decreased gradually from the time the sensor was activated until the PMA was introduced. […] This signal is a composite of the trans-cellular potential and the sub-cellular pH (changes in the latter corresponding to 59 mV per pH unit).

[6] = classification by in vivo tests such as the Draize test
[7] = concentrations necessary to depress metabolism of keratinocytes

Question: With `CCO` [Ethanol] as the molecule, how does the “recovery of metabolic rate after washout of irritant” value ([1]; FIG. 12) read?
Answer: Its value is “substantial recovery”.

Question: And the “recovery of metabolic rate after washout of irritant” value ([1]; separate test, FIG. 13)?
Answer: The value was “not from ethanol”.

Question: What about the “In-Vivo Irritancy” value [2, 6] of the same molecule?
Answer: The value was “Moderate-mild”.

Question: Which inhibition at 10000 µM (MDCK cells [3]; Canis lupus familiaris, MDCK, initial, read-out: decrease in metabolic rate) does the source give for `Cn1c(=O)c2[nH]cnc2n(C)c1=O` [theophylline] here?
Answer: Its inhibition at 10000 µM is 59%.

Question: What about the inhibition at 10000 µM (MDCK cells [3]; Canis lupus familiaris, MDCK, read-out: metabolic rate below the control value after gradual increase) of the same molecule?
Answer: The inhibition at 10000 µM was 48%.

Question: And the activation at 10000 µM (MDCK cells [3]; Canis lupus familiaris, MDCK, after 10 mM theophylline, read-out: increase of metabolic rate over the control value on removal)?
Answer: Its activation at 10000 µM is 30%.

Question: And the activation at 111 µM (MDCK cells [4]; Canis lupus familiaris, MDCK, read-out: increase in metabolic rate vs. control values on removal, after 111 μM theophylline)?
Answer: The activation at 111 µM was 28%.

Question: And the inhibition at 111 µM (MDCK cells [4]; Canis lupus familiaris, MDCK, 111 μM theophylline (therapeutic level), read-out: decrease in metabolic rate)?
Answer: The inhibition at 111 µM was roughly 10%.

Question: What about the inhibition at 10000 µM (MDCK cells [4]; Canis lupus familiaris, MDCK, 10 mM theophylline, read-out: decrease in metabolic rate vs. control value) of the same molecule?
Answer: Its inhibition at 10000 µM is 47%.

Question: What about the “time of return of metabolic rate to the control value” (MDCK cells [4]; after removal of 10 mM theophylline) of the same molecule?
Answer: Its value is “ten”.

Question: Which results are given for `C[S+](C)[O-]` [Dimethyl sulfoxide]?
Answer: recovery of metabolic rate after washout of irritant ([1]; separate test, FIG. 13): recover from DMSO but not from ethanol was shown; In-Vivo Irritancy ([2]; in vivo): Mild

Question: Which activation at 1500 µM (MDCK cells [3]; Canis lupus familiaris, MDCK, 1.5 mM amiloride, gradual, read-out: increase of metabolic rate above medium only) does the source give for `N=C(N)NC(=O)c1nc(Cl)c(N)nc1N` [amiloride] here?
Answer: The activation at 1500 µM was no more than 16%.

Question: What about the “metabolic rate after exposure was ceased” value (MDCK cells [3]; after 1.5 mM amiloride) of the same molecule?
Answer: The value was “returned to the original control value and then gradually continued to decline”.

Question: And the inhibition at 1500 µM (MDCK cells [4]; Canis lupus familiaris, MDCK, 1.5 mM amiloride, immediate, read-out: decrease in apparent metabolic rate vs. medium only)?
Answer: The inhibition at 1500 µM was 20%.

Question: For `CCCCC[C@H](O)/C=C/[C@H]1[C@H](O)CC(=O)[C@@H]1CCCCCCC(=O)O` [PGE1, prostaglandin E1], which “increase in metabolic rate at peak” value (PGE1 receptor) is on record?
Answer: The value was 80%.

Question: What about the time of peak (PGE1 receptor) of the same molecule?
Answer: Its time of peak is “approximately 1000 seconds”.

Question: What about the “time of return to base line metabolic rates” value (PGE1 receptor) of the same molecule?
Answer: The value was 4000 s.

Question: With `NC(=O)CC[C@@H]1NC(=O)[C@H](Cc2ccccc2)NC(=O)[C@H](Cc2ccc(O)cc2)NC(=O)[C@@H](N)CSSC[C@@H](C(=O)N2CCC[C@H]2C(=O)N[C@@H](CCCN=C(N)N)C(=O)NCC(N)=O)NC(=O)[C@H](CC(N)=O)NC1=O` [vasopressin] as the molecule, how does the “increase in metabolic rate” value (MDCK cells [3]) read?
Answer: The value was “no increase in metabolic rate was observed”.

Question: What about the “increase in metabolic rate over control values” (MDCK cells [4]) of the same molecule?
Answer: Its value is 14%.

Question: And the “increase in metabolic rate over the rate in 0.1 μM vasopressin” value (MDCK cells [4])?
Answer: The value was 19%.

Question: And the “increase over the control rate value” (MDCK cells [4])?
Answer: Its value is 42%.

Question: What does the source list for benzalkonium chloride [Benzalkonium Cl]?
Answer: decrease of cellular metabolic rate between two successive administrations ([1]; 30 μg/ml): real decrease of cellular metabolic rate between the two administrations; recovery of metabolic rate after washout of irritant ([1]; FIG. 12): no recovery was obtained; -log10 (MRD50) [1, 7]: 4.1; In-Vivo Irritancy [2, 6]: Severe

Question: What does the source list for `CC[C@H](C)[C@@H]1NC(=O)[C@H](Cc2ccc(O)cc2)NC(=O)[C@@H](N)CSSC[C@@H](C(=O)N2CCC[C@H]2C(=O)N[C@@H](CC(C)C)C(=O)NCC(N)=O)NC(=O)[C@H](CC(N)=O)NC(=O)[C@H](CCC(N)=O)NC1=O` [oxytocin]?
Answer: immediate change in metabolic rate (MDCK cells [3]): did not result in any immediate change; recovery of metabolic rate after removal (MDCK cells [3]): 100%; time to full recovery of metabolic rate after removal (MDCK cells [3]): up to 10 minutes; gradual decrease of metabolic rate (MDCK cells [3]; mdck, 1 µM): up to 10%

Question: Which IC50 [1, 7] does the source give for `CCCCO` [n-Butanol, 1-butanol] here?
Answer: Its IC50 is 20 mM.

Question: What about the “In-Vivo Irritancy” value [2, 6] of the same molecule?
Answer: The value was “Moderate”.

Question: With `CO` [Methanol] as the molecule, how does the “In-Vivo Irritancy” value [2, 6] read?
Answer: Its value is “Moderate-mild”.

Question: Which “In-Vivo Irritancy” value [2, 6] does the source give for `CC(C)=O` [Acetone] here?
Answer: The value was “Moderate-mild”.

Question: Which results are given for `CCCCCCCCCCCCOS(=O)(=O)[O-].[Na+]` [Na dodecyl sulfate, sodium dodecyl sulfate]?
Answer: IC50 [1]: 0.126 mM; In-Vivo Irritancy [2, 6]: Severe-moderate

Question: With `CCCCCCCCCCCCCC(=O)O[C@@H]1[C@@H](C)[C@@]2(O)[C@@H](C=C(CO)C[C@]3(O)C(=O)C(C)=C[C@@H]23)[C@@H]2C(C)(C)[C@]12OC(C)=O` [PMA, Phorbol myristate acetate] as the molecule, how does the “steady-state potential reported by the sensor” value (MDCK cells [5]; 10 ng/ml PMA) read?
Answer: The value was “dropped quickly to a minimum”.

Question: What about the “time to minimum of steady-state potential” value (MDCK cells [5]; 10 ng/ml PMA) of the same molecule?
Answer: The value was “about forty”.

Question: What about the “steady-state potential after removal of PMA” value (MDCK cells [5]; by the end of the experiment) of the same molecule?
Answer: Its value is “returned to a value near its initial one”.

Question: What about the “metabolic rate upon addition of PMA” value (MDCK cells [3]; cover slip, data not shown) of the same molecule?
Answer: The value was “increase in metabolic rate”.

Question: What about the “rise in metabolic rate at the peak” value (MDCK cells [4]; 10 ng/ml PMA) of the same molecule?
Answer: Its value is “more than a doubling”.

Question: And the “time of peak of metabolic rate” value (MDCK cells [4]; 10 ng/ml PMA)?
Answer: Its value is “near an hour later”.

Question: With `CC(O)CO` (stereo not shown) [Propylene glycol] as the molecule, how does the “In-Vivo Irritancy” value ([2]; in vivo) read?
Answer: The value was “Mild”.
